In the supplement of paper PMC10307832:

What was measured:
Test in all cases: relative viability (nuclei count vs DMSO), 5 days (fraction); higher = more cells survive
NCI-H2023 = tested on: NCI-H2023
How it was run: (§1)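 After 5 days of treatment, lung cancer cells in 1536-well plates were fixed and stained in a single step (final 0.05% Triton X-100, 1% formaldehyde, 1 ug/ml Hoechst) and their nuclei counted on 4× images. Treatment had been applied by pin tool the day after seeding as one drug alone or as a fixed anchor-drug dose with five library-drug doses (not always all listed) in √10 steps. Relative viability is the nuclei count of treated wells divided by that of vehicle wells, and values are medians of duplicate plates.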

COR-L23 = tested on: COR-L23
How it was run: as §1

A-427 = tested on: A-427
How it was run: as §1

NCI-H1651 = tested on: NCI-H1651
How it was run: as §1

COR-L 105 = tested on: COR-L 105
How it was run: as §1

LCLC-103H = tested on: LCLC-103H
How it was run: as §1

NCI-H650 = tested on: NCI-H650
How it was run: as §1

CAL-12T = tested on: CAL-12T
How it was run: as §1

NCI-H2085 = tested on: NCI-H2085
How it was run: as §1

HOP-62 = tested on: HOP-62
How it was run: as §1

LXF-289 = tested on: LXF-289
How it was run: as §1

NCI-H1563 = tested on: NCI-H1563
How it was run: as §1

NCI-H1975 = tested on: NCI-H1975
How it was run: as §1

NCI-H596 = tested on: NCI-H596
How it was run: as §1

RERF-LC-KJ = tested on: RERF-LC-KJ
How it was run: as §1

NCI-H3122 = tested on: NCI-H3122
How it was run: as §1

NCI-H647 = tested on: NCI-H647
How it was run: as §1

NCI-H2087 = tested on: NCI-H2087
How it was run: as §1

In the case of `COCC1(CO)C(=O)C2CCN1CC2` (centres undefined) [PRIMA-1MET] + CC(C)C[C@H](NC(=O)[C@H](Cc1ccccc1)NC(=O)c1cnccn1)B(O)O [Bortezomib] (partner 0.002 µM), the relative viability (NCI-H2023; first compound 0.2 µM) is reported as 1.17, the relative viability (NCI-H2023; first compound 0.6325 µM) is reported as 0.877 and the relative viability (NCI-H2023; first compound 2 µM) is reported as 0.893. The relative viability (NCI-H2023; first compound 6.325 µM) was 0.951, the relative viability (NCI-H2023; first compound 20 µM) was 1.02 and the relative viability (COR-L23; first compound 0.2 µM) was 1.29. For the same molecule, the relative viability (COR-L23; first compound 0.6325 µM) was 0.97, the relative viability (COR-L23; first compound 2 µM) was 0.954 and the relative viability (COR-L23; first compound 6.325 µM) was 1.05. It also gave a relative viability (COR-L23; first compound 20 µM) of 0.0202, a relative viability (A-427; first compound 0.2 µM) of 1.09 and a relative viability (A-427; first compound 0.6325 µM) of 0.881. The relative viability (A-427; first compound 2 µM) was 0.901, the relative viability (A-427; first compound 6.325 µM) was 0.839 and the relative viability (A-427; first compound 20 µM) was 0.962. It also gave a relative viability (NCI-H1651; first compound 0.2 µM) of 0.929, a relative viability (NCI-H1651; first compound 0.6325 µM) of 0.847 and a relative viability (NCI-H1651; first compound 2 µM) of 0.874. The relative viability (NCI-H1651; first compound 6.325 µM) was 0.975, the relative viability (NCI-H1651; first compound 20 µM) was 0.844 and the relative viability (COR-L 105; first compound 0.2 µM) was 1.12. It also gave a relative viability (COR-L 105; first compound 0.6325 µM) of 0.588, a relative viability (COR-L 105; first compound 2 µM) of 0.544 and a relative viability (COR-L 105; first compound 6.325 µM) of 0.715. It also gave a relative viability (COR-L 105; first compound 20 µM) of 0.163, a relative viability (LCLC-103H; first compound 0.2 µM) of 1.35 and a relative viability (LCLC-103H; first compound 0.6325 µM) of 1.03. For the same molecule, the relative viability (LCLC-103H; first compound 2 µM) was 1.04, the relative viability (LCLC-103H; first compound 6.325 µM) was 0.934 and the relative viability (LCLC-103H; first compound 20 µM) was 1. The relative viability (NCI-H650; first compound 0.2 µM) was 1.11, the relative viability (NCI-H650; first compound 2 µM) was 0.816 and the relative viability (NCI-H650; first compound 6.325 µM) was 0.508. It also gave a relative viability (NCI-H650; first compound 20 µM) of 0.117, a relative viability (CAL-12T; first compound 0.2 µM) of 0.862 and a relative viability (CAL-12T; first compound 0.6325 µM) of 0.947. The relative viability (CAL-12T; first compound 2 µM) was 1.15, the relative viability (CAL-12T; first compound 6.325 µM) was 0.946 and the relative viability (CAL-12T; first compound 20 µM) was 0.245. The relative viability (NCI-H2085; first compound 0.2 µM) was 1.08, the relative viability (NCI-H2085; first compound 0.6325 µM) was 0.978 and the relative viability (NCI-H2085; first compound 2 µM) was 0.856. It also gave a relative viability (NCI-H2085; first compound 6.325 µM) of 0.609, a relative viability (NCI-H2085; first compound 20 µM) of 0.392 and a relative viability (HOP-62; first compound 0.2 µM) of 1.02. It also gave a relative viability (HOP-62; first compound 0.6325 µM) of 0.648, a relative viability (HOP-62; first compound 2 µM) of 0.965 and a relative viability (HOP-62; first compound 6.325 µM) of 0.736. For the same molecule, the relative viability (HOP-62; first compound 20 µM) was 0.443, the relative viability (LXF-289; first compound 0.2 µM) was 0.999 and the relative viability (LXF-289; first compound 0.6325 µM) was 0.976. For the same molecule, the relative viability (LXF-289; first compound 2 µM) was 1.12, the relative viability (LXF-289; first compound 6.325 µM) was 1 and the relative viability (LXF-289; first compound 20 µM) was 0.872. The relative viability (NCI-H1563; first compound 0.2 µM) was 0.945, the relative viability (NCI-H1563; first compound 0.6325 µM) was 0.822 and the relative viability (NCI-H1563; first compound 2 µM) was 0.635. It also gave a relative viability (NCI-H1563; first compound 6.325 µM) of 1.15, a relative viability (NCI-H1563; first compound 20 µM) of 0.386 and a relative viability (NCI-H1975; first compound 0.2 µM) of 0.457. It also gave a relative viability (NCI-H1975; first compound 0.6325 µM) of 0.408, a relative viability (NCI-H1975; first compound 2 µM) of 0.399 and a relative viability (NCI-H1975; first compound 6.325 µM) of 0.4. The relative viability (NCI-H1975; first compound 20 µM) was 0.419, the relative viability (NCI-H596; first compound 0.2 µM) was 1.11 and the relative viability (NCI-H596; first compound 0.6325 µM) was 0.93. It also gave a relative viability (NCI-H596; first compound 2 µM) of 0.803, a relative viability (NCI-H596; first compound 6.325 µM) of 1.25 and a relative viability (NCI-H596; first compound 20 µM) of 0.195. The relative viability (RERF-LC-KJ; first compound 0.2 µM) was 1.35, the relative viability (RERF-LC-KJ; first compound 0.6325 µM) was 1.04 and the relative viability (RERF-LC-KJ; first compound 2 µM) was 1.13. For the same molecule, the relative viability (RERF-LC-KJ; first compound 6.325 µM) was 1.15, the relative viability (RERF-LC-KJ; first compound 20 µM) was 1.04 and the relative viability (NCI-H3122; first compound 0.2 µM) was 0.865. For the same molecule, the relative viability (NCI-H3122; first compound 0.6325 µM) was 1.01, the relative viability (NCI-H3122; first compound 2 µM) was 0.955 and the relative viability (NCI-H3122; first compound 6.325 µM) was 0.986. The relative viability (NCI-H3122; first compound 20 µM) was 0.999, the relative viability (NCI-H647; first compound 0.2 µM) was 1.19 and the relative viability (NCI-H647; first compound 0.6325 µM) was 1.06. It also gave a relative viability (NCI-H647; first compound 2 µM) of 0.876, a relative viability (NCI-H647; first compound 6.325 µM) of 1.17 and a relative viability (NCI-H647; first compound 20 µM) of 0.686. The relative viability (NCI-H2087; first compound 0.2 µM) was 1, the relative viability (NCI-H2087; first compound 0.6325 µM) was 0.673 and the relative viability (NCI-H2087; first compound 2 µM) was 0.795. The relative viability (NCI-H2087; first compound 6.325 µM) was 0.888 and the relative viability (NCI-H2087; first compound 20 µM) was 0.647.
